How the values of the series were obtained: A permeation test was carried out based on the following procedure. First, an excised skin (Yucatan miniature swine or hairless mouse) was placed in a vertical diffusion cell in which temperature was kept at 37° C., and a receptor phase was filled with 7 mL of a phosphate-buffered saline (PBS, a pH of 7.5). The whole was left to stand still for one hour. […] Then, the test was started. […] Note that after each of the collections, an equivalent amount of PBS was supplemented into the receptor phase. Each PBS collected from the receptor phase was measured for a drug concentration by an HPLC method. […] Further, the slant of a permeation curve at the time when the permeation rate reached a steady state was used to calculate a skin permeation rate (μg/hr/cm^2).
An enhancing effect on drug permeation was evaluated for the case where a 1% isopropyl myristate solution was used as a control and for the case where 1% each of n-octyl-β-D-thioglucopyranoside and dioctyl sodium sulfosuccinate was added.

Structures are written as SMILES. Counter-ions that a name gives are not always drawn. Like-named read-outs stand apart in the source and are kept apart here.

For the compound `COc1cc(N)cn[n+]1-c1ccccc1` [Amezinium metilsulfate, amezinium metilsulfate], under “hairless, mouse, 24 h, pH 7.5”, the “Percutaneous absorption enhancing action (Example/Comparative Example), cumulative permeation amount for 24 hours” value turned out to be 7 times. Besides, for the setting “hairless, mouse, pH 7.5”, the “Percutaneous absorption enhancing action (Example/Comparative Example), skin permeation rate” value is listed as 24 times.

In the case of `CC1(C)S[C@@H]2[C@H](NC(=O)[C@H](N)c3ccc(O)cc3)C(=O)N2[C@H]1C(=O)O` [Amoxicillin trihydrate, amoxicillin trihydrate], the “Percutaneous absorption enhancing action (Example/Comparative Example), cumulative permeation amount for 24 hours” value (hairless, mouse, 24 h, pH 7.5) was determined as 234 times. Also, the “Percutaneous absorption enhancing action (Example/Comparative Example), skin permeation rate” value (hairless, mouse, pH 7.5) is reported as 254 times.

As to `CCOc1nc2cccc(C(=O)O)c2n1Cc1ccc(-c2ccccc2-c2nnn[nH]2)cc1` [Candesartan, candesartan], the “Percutaneous absorption enhancing action (Example/Comparative Example), cumulative permeation amount for 24 hours” value (hairless, mouse, 24 h, pH 7.5) came out at 15 times. Moreover, the “Percutaneous absorption enhancing action (Example/Comparative Example), skin permeation rate” value (hairless, mouse, pH 7.5) is listed as 183 times.

`N[C@@H](C(=O)N[C@@H]1C(=O)N2C(C(=O)O)=C(Cl)CS[C@H]12)c1ccccc1` [Cefaclor, cefaclor]: the “Percutaneous absorption enhancing action (Example/Comparative Example), cumulative permeation amount for 24 hours” value (hairless, mouse, 24 h, pH 7.5) came out at 420 times. In addition, the “Percutaneous absorption enhancing action (Example/Comparative Example), skin permeation rate” value (hairless, mouse, pH 7.5) is recorded as 962 times.

`CCOC(=O)[C@H](CCc1ccccc1)N[C@H]1CCCN2CCC[C@@H](C(=O)O)N2C1=O` [Cilazapril, cilazapril]: the “Percutaneous absorption enhancing action (Example/Comparative Example), cumulative permeation amount for 24 hours” value (hairless, mouse, 24 h, pH 7.5) is 13 times. For the same compound, the “Percutaneous absorption enhancing action (Example/Comparative Example), skin permeation rate” value (hairless, mouse, pH 7.5) is 16 times.

As to `CCOC(=O)[C@H](CCc1ccccc1)N[C@@H](C)C(=O)N(CC(=O)O)C1Cc2ccccc2C1` [Delapril hydrochloride, delapril hydrochloride], the “Percutaneous absorption enhancing action (Example/Comparative Example), cumulative permeation amount for 24 hours” value (hairless, mouse, 24 h, pH 7.5) was 42 times. Moreover, the “Percutaneous absorption enhancing action (Example/Comparative Example), skin permeation rate” value (hairless, mouse, pH 7.5) is reported as 26 times.

On to `CCOC(=O)[C@H](CCc1ccccc1)N[C@@H](C)C(=O)N1CCC[C@H]1C(=O)O` [Enalapril maleate, enalapril maleate], for which the “Percutaneous absorption enhancing action (Example/Comparative Example), cumulative permeation amount for 24 hours” value (hairless, mouse, 24 h, pH 7.5) is given as 4 times. Also, the “Percutaneous absorption enhancing action (Example/Comparative Example), skin permeation rate” value (hairless, mouse, pH 7.5) is reported as 44 times.

Consider `CC(C)n1c(/C=C/C(O)CC(O)CC(=O)O)c(-c2ccc(F)cc2)c2ccccc21` (centres unmarked) [Fluvastatin sodium, fluvastatin sodium], for which the “Percutaneous absorption enhancing action (Example/Comparative Example), cumulative permeation amount for 24 hours” value (hairless, mouse, 24 h, pH 7.5) worked out at 28 times. The “Percutaneous absorption enhancing action (Example/Comparative Example), skin permeation rate” value (hairless, mouse, pH 7.5) is reported as 54 times.

For `NNc1nncc2ccccc12` [Hydralazine hydrochloride, hydralazine hydrochloride], the “Percutaneous absorption enhancing action (Example/Comparative Example), cumulative permeation amount for 24 hours” value (hairless, mouse, 24 h, pH 7.5) is reported as 344 times. For the same compound, the “Percutaneous absorption enhancing action (Example/Comparative Example), skin permeation rate” value (hairless, mouse, pH 7.5) was 1,411 times.

With `CCOC(=O)[C@H](CCc1ccccc1)N[C@@H](C)C(=O)N1C(=O)N(C)C[C@H]1C(=O)O` [Imidapril hydrochloride, imidapril hydrochloride], where the note is “hairless, mouse, 24 h, pH 7.5”, the “Percutaneous absorption enhancing action (Example/Comparative Example), cumulative permeation amount for 24 hours” value turned out to be 12 times. Besides, the “Percutaneous absorption enhancing action (Example/Comparative Example), skin permeation rate” value (hairless, mouse, pH 7.5) is given as 40 times.

As to `N[C@@H](Cc1ccc(O)c(O)c1)C(=O)O` [Levodopa, levodopa], the “Percutaneous absorption enhancing action (Example/Comparative Example), cumulative permeation amount for 24 hours” value (hairless, mouse, 24 h, pH 7.5) worked out at 461 times. Besides, the “Percutaneous absorption enhancing action (Example/Comparative Example), skin permeation rate” value (hairless, mouse, pH 7.5) turned out to be 289 times.

Consider `CN(Cc1cnc2nc(N)nc(N)c2n1)c1ccc(C(=O)N[C@@H](CCC(=O)O)C(=O)O)cc1` [Methotrexate, methotrexate], for which, for the setting “hairless, mouse, 24 h, pH 7.5”, the “Percutaneous absorption enhancing action (Example/Comparative Example), cumulative permeation amount for 24 hours” value was 250 times. The “Percutaneous absorption enhancing action (Example/Comparative Example), skin permeation rate” value (hairless, mouse, pH 7.5) was 180 times.

For the compound `CCCc1nc(C(C)(C)O)c(C(=O)OCc2oc(=O)oc2C)n1Cc1ccc(-c2ccccc2-c2nnn[nH]2)cc1` [Olmesartan medoxomil, olmesartan medoxomil], the “Percutaneous absorption enhancing action (Example/Comparative Example), cumulative permeation amount for 24 hours” value (hairless, mouse, 24 h, pH 7.5) was determined as 75 times. Besides, the “Percutaneous absorption enhancing action (Example/Comparative Example), skin permeation rate” value (hairless, mouse, pH 7.5) is listed as 94 times.

Take `CCC[C@H](N[C@@H](C)C(=O)N1[C@H](C(=O)O)C[C@@H]2CCCC[C@@H]21)C(=O)OCC` [Perindopril erbumine, perindopril erbumine]: the “Percutaneous absorption enhancing action (Example/Comparative Example), cumulative permeation amount for 24 hours” value (hairless, mouse, 24 h, pH 7.5) is recorded as 3 times. Where the note is “hairless, mouse, pH 7.5”, the “Percutaneous absorption enhancing action (Example/Comparative Example), skin permeation rate” value was 12 times.

Regarding `CNC[C@H](O)c1cccc(O)c1` [Phenylephrine hydrochloride, phenylephrine hydrochloride], under “hairless, mouse, 24 h, pH 7.5”, the “Percutaneous absorption enhancing action (Example/Comparative Example), cumulative permeation amount for 24 hours” value came out at 4 times. In addition, under “hairless, mouse, pH 7.5”, the “Percutaneous absorption enhancing action (Example/Comparative Example), skin permeation rate” value turned out to be 8 times.

Regarding `NS(=O)(=O)c1cc(C(=O)O)cc(N2CCCC2)c1Oc1ccccc1` [Piretanide, piretanide], the “Percutaneous absorption enhancing action (Example/Comparative Example), cumulative permeation amount for 24 hours” value (hairless, mouse, 24 h, pH 7.5) is on record as 34 times. For the same compound, the “Percutaneous absorption enhancing action (Example/Comparative Example), skin permeation rate” value (hairless, mouse, pH 7.5) worked out at 51 times.

`CCOC(=O)[C@H](CCc1ccccc1)N[C@@H](C)C(=O)N1[C@H](C(=O)O)C[C@@H]2CCC[C@@H]21` [Ramipril, ramipril]: the “Percutaneous absorption enhancing action (Example/Comparative Example), cumulative permeation amount for 24 hours” value (hairless, mouse, 24 h, pH 7.5) is listed as 5 times. For the same compound, the “Percutaneous absorption enhancing action (Example/Comparative Example), skin permeation rate” value (hairless, mouse, pH 7.5) is 8 times.

As for `CCOc1cc(CC(=O)N[C@@H](CC(C)C)c2ccccc2N2CCCCC2)ccc1C(=O)O` [Repaglinide, repaglinide], under “hairless, mouse, 24 h, pH 7.5”, the “Percutaneous absorption enhancing action (Example/Comparative Example), cumulative permeation amount for 24 hours” value stood at 27 times. Under “hairless, mouse, pH 7.5”, the “Percutaneous absorption enhancing action (Example/Comparative Example), skin permeation rate” value is reported as 33 times.

Regarding `CC(C)c1nc(N(C)S(C)(=O)=O)nc(-c2ccc(F)cc2)c1/C=C/[C@@H](O)C[C@@H](O)CC(=O)[O-].CC(C)c1nc(N(C)S(C)(=O)=O)nc(-c2ccc(F)cc2)c1/C=C/[C@@H](O)C[C@@H](O)CC(=O)[O-].[Ca+2]` [Rosuvastatin calcium, rosuvastatin calcium], the “Percutaneous absorption enhancing action (Example/Comparative Example), cumulative permeation amount for 24 hours” value was 46 times and the “Percutaneous absorption enhancing action (Example/Comparative Example), skin permeation rate” value was 138 times.

Regarding `C[C@]1(Cn2ccnn2)[C@H](C(=O)O)N2C(=O)C[C@H]2S1(=O)=O` [Tazobactam, tazobactam], the “Percutaneous absorption enhancing action (Example/Comparative Example), cumulative permeation amount for 24 hours” value (hairless, mouse, 24 h, pH 7.5) came to 6 times. Moreover, the “Percutaneous absorption enhancing action (Example/Comparative Example), skin permeation rate” value (hairless, mouse, pH 7.5) came out at 21 times.

Turning to `CCOC(=O)[C@H](CCc1ccccc1)N[C@H]1CS[C@H](c2cccs2)CN(CC(=O)O)C1=O` [Temocapril hydrochloride, temocapril hydrochloride], where the note is “hairless, mouse, 24 h, pH 7.5”, the “Percutaneous absorption enhancing action (Example/Comparative Example), cumulative permeation amount for 24 hours” value was determined as 27 times. For the same compound, the “Percutaneous absorption enhancing action (Example/Comparative Example), skin permeation rate” value (hairless, mouse, pH 7.5) stood at 46 times.

In the case of `Cc1cccc(Nc2ccncc2S(=O)(=O)NC(=O)NC(C)C)c1` [Torasemide, torasemide], the “Percutaneous absorption enhancing action (Example/Comparative Example), cumulative permeation amount for 24 hours” value (hairless, mouse, 24 h, pH 7.5) was 29 times. In addition, where the note is “hairless, mouse, pH 7.5”, the “Percutaneous absorption enhancing action (Example/Comparative Example), skin permeation rate” value turned out to be 40 times.

For `COc1ccccc1N1CCN(CCCNc2cc(=O)n(C)c(=O)n2C)CC1` [Urapidil, urapidil], the “Percutaneous absorption enhancing action (Example/Comparative Example), cumulative permeation amount for 24 hours” value (hairless, mouse, 24 h, pH 7.5) came to 20 times. The “Percutaneous absorption enhancing action (Example/Comparative Example), skin permeation rate” value (hairless, mouse, pH 7.5) came out at 18 times.

On to `CCCCC(=O)N(Cc1ccc(-c2ccccc2-c2nnn[nH]2)cc1)[C@H](C(=O)O)C(C)C` [Valsartan, valsartan], for which the “Percutaneous absorption enhancing action (Example/Comparative Example), cumulative permeation amount for 24 hours” value (hairless, mouse, 24 h, pH 7.5) was 4 times. In addition, the “Percutaneous absorption enhancing action (Example/Comparative Example), skin permeation rate” value (hairless, mouse, pH 7.5) is listed as 12 times.

With `CC(=O)N[C@H]1[C@H]([C@H](O)[C@H](O)CO)OC(C(=O)O)=C[C@@H]1N=C(N)N` [Zanamivir hydrate, zanamivir hydrate], the “Percutaneous absorption enhancing action (Example/Comparative Example), cumulative permeation amount for 24 hours” value (hairless, mouse, 24 h, pH 7.5) turned out to be 47 times. Where the note is “hairless, mouse, pH 7.5”, the “Percutaneous absorption enhancing action (Example/Comparative Example), skin permeation rate” value stood at 92 times.

These data come from patent publication US8771724B2, “Percutaneous absorption enhancer and transdermal preparation using the same” (TOA EIYO Ltd., priority 2008, dated 2014).
